Measured values from patent publication EP0829477A1, “NOVEL PHYSIOLOGICALLY ACTIVE NA23063 ANALOGUES, PROCESS FOR PRODUCING THE SAME AND USE OF THE SAME” (NIPPON KAYAKU KABUSHIKI KAISHA, priority 1995, dated 1996).
pIC50: −log10 of the molar value.

Key:
Bovine Phosphodiesterase = test: Phosphodiesterase inhibiting activity (cAMP substrate, remaining cAMP measured by HPLC); format: biochemical; conditions: for pIC50: inhibition of phosphodiesterase, from Table 2 data, read-out: IC 50 values
Procedure: Fifity g of the respiratory smooth muscle of a sacrificed cow was cut into pieces with scissors and a knife, then suspended in 2 mM EDTA-containing 20 mM Tris buffer (pH 7.4) of 5 times by volume the pieces, and homogenized with a polytron homogenizer to prepare a crude phosphodiesterase liquid. This was centrifuged at 10,000 x g for 20 minutes to collect the supernatant, which is a soluble, crude phosphodiesterase liquid. This was put into a Q-Sepharose fast-flow column (100 ml), washed with a buffer, and then eluted with sodium acetate having a gradient concentration of from 50 mM to 1 M. The phosphodiesterase-containing active fraction eluted with 0.7 M sodium acetate was collected.
To determine its phosphodiesterase activity, the enzyme was reacted with a substrate, 3',5'-cyclic adenosine monophosphate (cAMP, manufactured by Sigma Co. in US). After the reaction, the remaining cAMP was measured through high-performance liquid chromatography.
0.02 mg/ml of cAMP, 2.5 mM dithiothreitol, 6 mM magnesium chloride, 50 mM Tris buffer (pH 8.0), 1 µl of the phosphodiesterase liquid prepared above, and a varying amount of the compound of the invention were put into plastic tubes having a volume of 0.3 ml, to which was added water to have a final volume of 200 µl. The mixture was stirred, and incubated at 37°C for 60 minutes. 20 µl of an aqueous solution of 200 mM tetraethylenediamine was added to each tube to stop the reaction. 20 µl of the resulting reaction mixture was subjected to high-performance liquid chromatography (ODS column of 3.9 mm⌀ x 150 mm, manufactured by Waters Co. in US), through which the remaining cAMP was measured. From the data, obtained was the activity of the compound of the invention of inhibiting the enzyme phosphodiesterase, as in Table 2.

guinea pig oxyphiles = test: Inhibition of activation of oxyphiles (PAF-induced release of active oxygen, luminol chemiluminescence); format: cell-based, Hartley guinea pigs; conditions: Cavia porcellus, 5 min; PAF stimulation, chemiluminescence for 5 minutes; read-out: IC50 (x 10^-6 M)
Procedure: One mg of polymyxin B (manufactured by Sigma Co.) was intra-abdominally administered to Hartley guinea pigs (6-week age). The chemical was administered to the animals once a week, for 6 to 8 weeks. After the final administration of the chemical polymyxin B, 50 ml of PBS (phosphate-buffered saline) was injected into the abdomen of each guinea pig, and the abdominal cells were collected. These were centrifuged at 800 rpm for 5 minutes to collect the precipitate of abdominal infiltrated cells. The precipitated cells were suspended in 1 ml of 40 % Ficol solution (40 % Ficol (manufactured by Pharmacia Co.) in HBSS (Hanks' […] salt solution)), and stratified over a discontinuous density gradient of Ficol (40 to 90 %). This was centrifuged at 1500 rpm for 40 minutes to collect the oxyphile fraction. This operation generally produced oxyphiles having a purity of 99 % or higher. The cells were washed two times with an RPMI1640 medium (0.2 % BSA (bovine serum albumin), manufactured by Boehringer Mannheim Co.), then suspended to have a predetermined cell concentration, and used in the intended experiments. (B) Effect of Inactivating Oxyphiles (Effect of inhibiting the activity of guinea pig oxyphiles to release active oxygen):
2 µl of each chemical to be tested and 180 µl of the cell suspension were added to each well of a 96-well multiwell plate (white plate for chemiluminometry) which had been previously kept at 37°C, and kept therein at 37°C for 10 minutes. After thus kept, 20 µl of PAF (platelet activating factor) (x -10^-6 M) and 20 µl of a luminol solution were added thereto, and immediately the intensity of chemiluminescence of the system was measured, using […]. The data of chemiluminescence for 5 minutes were obtained, from which was calculated the 50 % inhibition concentration of the compound tested (IC50).

[1] = Solubility of the isolated substances in solvents; format: physicochemical; conditions: qualitative; for Solubility: various solvents
Procedure: These pure NA23063A, NA23063B1, NA23063B2, NA23063C and NA23063D were tested for their appearance, molecular weight, solubility, Rf value in silica gel thin-layer column chromatography, UV absorption spectrum, IR absorption spectrum, ^1H-NMR spectrum, and ^13C-NMR spectrum. The physicochemical properties of NA23063A, B1, B2, C and D thus obtained have been shown hereinabove.

bronchial smooth muscle = test: Inhibition of contraction of bronchial smooth muscle (histamine-contracted tracheal strips in an organ bath); design: species or system Hartley guinea pigs; conditions: 10 µg/ml; contraction with 10 µM histamine = 100 %, relaxation with papaverine = 0 %
Procedure: The tracheae were taken out of male Hartley guinea pigs having a body weight of from 400 to 500 g. These were cut off at the cartilage opposite to the smooth muscle, and sliced into small pieces having a width of 1 mm. Five of these pieces were bound with silk thread into one bundle, of which the both ends were ligated with machine cotton. This was then suspended in an organ bath with applying thereto a tension of 0.5 g. The temperature of the bath was 37°C, and the bath contained a nutrient liquid of Krebs-Hanseleit buffer (118 mM NaCl, 4.6 mM KCl, 1.1 mM MgSO4·7H2O, 1.8 mM CaCl2·2H2O, 24.9 mM NaHCO3, 1.0 mM KH2PO4·2H2O, 11.1 mM glucose). To the nutrient liquid, added was 5 µM indomethacin. The bath was well aerated with a mixed gas of 95 % O2 + 5 % CO2. The suspended tissue was incubated in the organ bath for about 2 hours for habituation in the external environment. Then, this was contracted with 10 µM histamine. After the contraction was stabilized, NA23063D was added to the bath to have a concentration of 0.1, 0.3, 1.0, 3.0, 10 and 30 µg/ml. The reaction in the bath comprising the varying amount of NA23063D was continued until the relaxation of the tissue became stabilized. When no relaxation was admitted in 10 minutes after the addition of the chemical, NA23063D, the concentration of the chemical was increased to the next stage. […]

[2] = test system: respiratory tract resistance; test: Inhibition of immediate allergic respiratory stenosis in ovalbumin-sensitized asthmatic animal models; format: in vivo, Brown-Norway (BN) rats; conditions: intravenous administration of 30 mg/kg, rat models, relative to control maximum resistance after antigen
Procedure: An antigen ovalbumin (OA) was administered to male Brown-Norway (BN) rats to prepare actively-sensitized animal models. To sensitize the animals, 1 ml of the antigen solution (100 mg/ml of Al(OH)3 and 1 mg/ml of OA in aqueous 0.9 % NaCl solution) was subcutaneously administered to the back of each rat. On the other hand, inactivated cells of Bordetella pertussis were suspended in an aqueous solution of 0.9 % NaCl to have a concentration of 1.0 x 10^10 cells/ml. 0.25 ml of the cell suspension was intra-abdominally administered to each rat along with the antigen sensitization. The administration was repeated three times in all, on the 1st, 7th and 14th days. […]
Those actively-sensitized BN rats were anesthetized with sodium pentobarbiturate (50 mg/kg, i.p.), into which was inserted a polyvinyl chloride tube cannula through the respiratory tract. Each rat was purged with air through the cannula, and the respiratory tract resistance was monitored. […] In addition, an additional cannula was inserted into the left common carotid artery of each rat, through which the blood pressure and the heart beat of the rat being tested were monitored. […] On the basis of the time (0, zero) at which the antigen was challenged, the variation (increase or decrease) in the respiratory tract resistance of each rat was recorded at regular intervals before and after the administration of the antigen. […]

## O=c1c(-c2ccc(Oc3cc(-c4coc5cc(O)cc(O)c5c4=O)ccc3O)cc2)coc2cc(O)cc(O)c12 [NA23063A]
Bovine Phosphodiesterase; Concentration 0.78 µg/ml
  Inhibiting Activity (%): 43.5%
Bovine Phosphodiesterase; Concentration 1.56 µg/ml
  Inhibiting Activity (%): 57.8%
Bovine Phosphodiesterase; Concentration 3.13 µg/ml
  Inhibiting Activity (%): 60.5%
Bovine Phosphodiesterase; Concentration 6.25 µg/ml
  Inhibiting Activity (%): 79.5%
Bovine Phosphodiesterase
  pIC50: 5.68
Guinea pig oxyphiles
  pIC50: 7.00
[1]
  Solubility: soluble in lower alcohols, acetone and ethyl acetate, but insoluble in hexane, petroleum ether and water

## O=c1c(-c2ccc(O)c(-c3cc(-c4coc5cc(O)cc(O)c5c4=O)ccc3O)c2)coc2cc(O)ccc12 [NA23063D]
Bovine Phosphodiesterase; Concentration 0.39 µg/ml
  Inhibiting Activity (%): 18.9%
Bovine Phosphodiesterase; Concentration 0.78 µg/ml
  Inhibiting Activity (%): 30.7%
Bovine Phosphodiesterase; Concentration 1.56 µg/ml
  Inhibiting Activity (%): 34.6%
Bovine Phosphodiesterase; Concentration 3.13 µg/ml
  Inhibiting Activity (%): 44.8%
Bovine Phosphodiesterase; Concentration 6.25 µg/ml
  Inhibiting Activity (%): 61.0%
Bovine Phosphodiesterase
  pIC50: 5.10
Bronchial smooth muscle
  relaxation of the bronchial smooth muscle: 61%
Guinea pig oxyphiles
  pIC50: 5.96
[2]
  % inhibition (decrease in the respiratory tract resistance): 54%
[1]
  Solubility in dimethylsulfoxide (DMSO): soluble
  Solubility: soluble in lower alcohols, acetone, ethyl acetate and dimethylsulfoxide, but insoluble in hexane, petroleum ether and water

## O=c1c(-c2ccc(Oc3cc(-c4coc5cc(O)cc(O)c5c4=O)ccc3O)cc2)coc2cc(O)ccc12 [NA23063B1]
Bovine Phosphodiesterase; Concentration 0.39 µg/ml
  Inhibiting Activity (%): 17.5%
Bovine Phosphodiesterase; Concentration 0.78 µg/ml
  Inhibiting Activity (%): 28.1%
Bovine Phosphodiesterase; Concentration 1.56 µg/ml
  Inhibiting Activity (%): 38.2%
Bovine Phosphodiesterase; Concentration 3.13 µg/ml
  Inhibiting Activity (%): 56.3%
Bovine Phosphodiesterase; Concentration 6.25 µg/ml
  Inhibiting Activity (%): 64.9%
Bovine Phosphodiesterase
  pIC50: 5.31
[1]
  Solubility: soluble in lower alcohols, acetone, ethyl acetate and dimethylsulfoxide, but insoluble in hexane, petroleum ether and water

## O=c1c(-c2ccc(O)c(-c3cc(-c4coc5cc(O)cc(O)c5c4=O)ccc3O)c2)coc2cc(O)cc(O)c12 [NA23063C]
Bovine Phosphodiesterase; Concentration 0.39 µg/ml
  Inhibiting Activity (%): 26.4%
Bovine Phosphodiesterase; Concentration 0.78 µg/ml
  Inhibiting Activity (%): 57.7%
Bovine Phosphodiesterase; Concentration 1.56 µg/ml
  Inhibiting Activity (%): 66.5%
Bovine Phosphodiesterase; Concentration 3.13 µg/ml
  Inhibiting Activity (%): 77.6%
Bovine Phosphodiesterase; Concentration 6.25 µg/ml
  Inhibiting Activity (%): 83.8%
Bovine Phosphodiesterase
  pIC50: 5.89
Guinea pig oxyphiles
  pIC50: 6.49
[1]
  Solubility: soluble in lower alcohols, acetone, ethyl acetate and dimethylsulfoxide, but insoluble in hexane, petroleum ether and water

## O=c1c(-c2ccc(O)c(Oc3ccc(-c4coc5cc(O)cc(O)c5c4=O)cc3)c2)coc2cc(O)ccc12 [NA23063B2]
Bovine Phosphodiesterase; Concentration 0.39 µg/ml
  Inhibiting Activity (%): 17.5%
Bovine Phosphodiesterase; Concentration 0.78 µg/ml
  Inhibiting Activity (%): 28.1%
Bovine Phosphodiesterase; Concentration 1.56 µg/ml
  Inhibiting Activity (%): 38.2%
Bovine Phosphodiesterase; Concentration 3.13 µg/ml
  Inhibiting Activity (%): 56.3%
Bovine Phosphodiesterase; Concentration 6.25 µg/ml
  Inhibiting Activity (%): 64.9%
Bovine Phosphodiesterase
  pIC50: 5.31
[1]
  Solubility: soluble in lower alcohols, acetone, ethyl acetate and dimethylsulfoxide, but insoluble in hexane, petroleum ether and water
